Results as given in ChEMBL document CHEMBL1201862, “PubChem BioAssay data set” (2004).
Active and inactive are the calls of the source.

Assays:
[1] = target: T1, Tyrosyl-DNA phosphodiesterase 2 (Homo sapiens, UniProt O95551); assay: human TDP2 enzyme inhibitors, dose response, biochemical, epi absorbance, IC50 (AID 743297)
T1 sequence (O95551 whole entry): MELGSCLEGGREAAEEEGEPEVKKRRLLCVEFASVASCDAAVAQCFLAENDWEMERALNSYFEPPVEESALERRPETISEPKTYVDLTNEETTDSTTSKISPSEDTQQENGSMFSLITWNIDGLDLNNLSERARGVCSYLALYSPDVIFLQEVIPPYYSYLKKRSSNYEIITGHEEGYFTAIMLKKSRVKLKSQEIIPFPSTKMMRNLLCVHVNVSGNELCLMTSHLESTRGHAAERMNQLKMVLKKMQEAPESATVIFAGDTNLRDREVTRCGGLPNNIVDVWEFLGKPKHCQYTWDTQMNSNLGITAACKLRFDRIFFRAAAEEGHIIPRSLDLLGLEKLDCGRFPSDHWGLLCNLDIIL

[2] = target: T2, Protein RecA (Mycobacterium tuberculosis, UniProt P9WHJ3); assay: Fluorescence Cell-Free Homogeneous Dose Retest to Identify Inhibitors of RecA-Intein Splicing Activity. [Related pubchem assays (depositor defined):AID2097, AID2223, AID489010, AID492950]; type: functional
T2 sequence (P9WHJ3 whole entry): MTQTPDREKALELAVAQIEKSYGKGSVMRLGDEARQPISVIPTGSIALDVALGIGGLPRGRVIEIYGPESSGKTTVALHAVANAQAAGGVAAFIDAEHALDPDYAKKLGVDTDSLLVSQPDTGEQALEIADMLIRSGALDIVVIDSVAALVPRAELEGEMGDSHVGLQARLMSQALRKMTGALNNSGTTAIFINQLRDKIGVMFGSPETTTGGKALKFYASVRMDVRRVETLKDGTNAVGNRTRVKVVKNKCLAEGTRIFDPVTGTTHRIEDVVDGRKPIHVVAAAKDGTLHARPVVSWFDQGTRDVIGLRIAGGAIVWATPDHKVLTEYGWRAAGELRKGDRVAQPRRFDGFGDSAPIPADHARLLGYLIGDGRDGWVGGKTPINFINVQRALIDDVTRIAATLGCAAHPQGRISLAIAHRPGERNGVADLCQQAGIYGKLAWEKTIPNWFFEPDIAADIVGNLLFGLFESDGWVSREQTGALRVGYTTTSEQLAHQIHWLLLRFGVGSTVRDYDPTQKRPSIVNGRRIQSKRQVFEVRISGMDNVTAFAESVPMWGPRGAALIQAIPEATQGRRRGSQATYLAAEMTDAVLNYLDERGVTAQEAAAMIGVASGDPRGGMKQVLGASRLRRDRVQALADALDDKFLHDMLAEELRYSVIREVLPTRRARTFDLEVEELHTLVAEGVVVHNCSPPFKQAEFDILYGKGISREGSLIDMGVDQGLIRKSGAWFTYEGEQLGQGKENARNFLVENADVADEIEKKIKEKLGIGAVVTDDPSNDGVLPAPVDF

[3] = target: T3, Dual specificity protein phosphatase 6 (Rattus norvegicus, UniProt Q64346); assay: MKP-3 phosphatase inhibitors, primary screen, biochemical, rat enzyme, in vitro (AID 425)
T3 sequence (Q64346 whole entry): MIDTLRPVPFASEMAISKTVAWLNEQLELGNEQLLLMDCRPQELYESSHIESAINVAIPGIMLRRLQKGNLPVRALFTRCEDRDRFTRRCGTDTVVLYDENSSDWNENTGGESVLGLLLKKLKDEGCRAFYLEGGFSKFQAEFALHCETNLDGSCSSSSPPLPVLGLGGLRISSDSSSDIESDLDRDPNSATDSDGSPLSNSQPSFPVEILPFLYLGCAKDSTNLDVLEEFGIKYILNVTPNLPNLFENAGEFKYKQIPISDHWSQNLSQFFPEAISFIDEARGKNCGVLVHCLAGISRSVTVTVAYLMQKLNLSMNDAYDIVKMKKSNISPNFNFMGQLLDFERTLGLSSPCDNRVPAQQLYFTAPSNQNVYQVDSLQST

[4] = target: T4, RNA-binding protein pos-1 (Caenorhabditis elegans, UniProt G5EF15); assay: inhibitors of POS-1/mex-3 RNA binding, dose response, biochemical, fluorescence polarization (AID 1964);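 further: purified POS-1 fused to maltose binding protein made in E. coli; potency of compounds blocking POS-1 binding to fluorescent RNA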
T4 sequence (G5EF15 whole entry): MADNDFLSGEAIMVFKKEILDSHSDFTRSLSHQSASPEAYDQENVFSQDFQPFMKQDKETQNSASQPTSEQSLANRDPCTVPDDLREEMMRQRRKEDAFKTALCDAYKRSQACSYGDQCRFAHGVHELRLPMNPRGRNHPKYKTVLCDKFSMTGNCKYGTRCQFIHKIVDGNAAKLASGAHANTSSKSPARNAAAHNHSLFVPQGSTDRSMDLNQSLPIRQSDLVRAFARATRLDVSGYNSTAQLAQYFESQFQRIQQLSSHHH

[5] = target: T5, Zinc finger protein mex-5 (Caenorhabditis elegans, UniProt Q9XUB2); assay: MEX-5/TCR-2 RNA interaction inhibitors, dose response, biochemical, C. elegans, fluorescence polarization (AID 1960)
T5 sequence (Q9XUB2 whole entry): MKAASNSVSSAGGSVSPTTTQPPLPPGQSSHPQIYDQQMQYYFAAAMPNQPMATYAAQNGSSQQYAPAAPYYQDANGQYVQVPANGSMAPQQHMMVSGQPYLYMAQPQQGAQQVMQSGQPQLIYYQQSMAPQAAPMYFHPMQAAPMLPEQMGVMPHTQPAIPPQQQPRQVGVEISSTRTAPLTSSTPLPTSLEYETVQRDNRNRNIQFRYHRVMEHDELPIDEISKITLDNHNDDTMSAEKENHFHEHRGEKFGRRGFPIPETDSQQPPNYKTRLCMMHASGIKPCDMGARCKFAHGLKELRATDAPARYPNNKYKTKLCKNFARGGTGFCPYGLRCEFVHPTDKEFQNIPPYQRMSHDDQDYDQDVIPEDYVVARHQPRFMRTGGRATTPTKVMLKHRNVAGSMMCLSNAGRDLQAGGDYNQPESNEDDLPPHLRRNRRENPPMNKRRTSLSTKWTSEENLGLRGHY

[6] = target: 72 kDa type IV collagenase (Homo sapiens, UniProt P08253); assay: Dose Response validation of uHTS RPN11 inhibitor hits using a MMP-2 Fluorescence assay.; type: functional
Sequence of 72 kDa type IV collagenase (P08253 whole entry): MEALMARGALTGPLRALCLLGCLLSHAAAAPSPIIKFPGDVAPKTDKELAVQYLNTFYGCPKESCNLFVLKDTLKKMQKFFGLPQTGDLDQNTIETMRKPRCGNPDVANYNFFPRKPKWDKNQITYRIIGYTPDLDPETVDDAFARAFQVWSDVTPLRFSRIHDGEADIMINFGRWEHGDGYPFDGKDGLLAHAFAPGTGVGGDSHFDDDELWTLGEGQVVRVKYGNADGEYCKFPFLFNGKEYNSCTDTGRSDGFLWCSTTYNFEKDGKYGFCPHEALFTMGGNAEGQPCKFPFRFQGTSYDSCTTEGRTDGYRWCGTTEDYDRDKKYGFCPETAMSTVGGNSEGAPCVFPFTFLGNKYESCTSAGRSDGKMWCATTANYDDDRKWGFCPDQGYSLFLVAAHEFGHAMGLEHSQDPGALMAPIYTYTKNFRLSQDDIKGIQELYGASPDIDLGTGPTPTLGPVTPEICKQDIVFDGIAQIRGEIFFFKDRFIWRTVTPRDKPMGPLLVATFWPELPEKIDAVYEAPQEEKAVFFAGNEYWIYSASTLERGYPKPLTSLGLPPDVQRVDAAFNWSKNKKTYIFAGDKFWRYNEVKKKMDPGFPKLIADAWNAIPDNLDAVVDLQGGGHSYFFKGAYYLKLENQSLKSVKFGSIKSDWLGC

[7] = target: Prothrombin (Bos taurus, UniProt P00735); assay: thrombin inhibition, dose response, biochemical, fluorescence polarization, uHTS hits (AID 602369); type: functional
[8] = target: Small ubiquitin-related modifier 1 (Homo sapiens, UniProt P63165); assay: inhibitors of SUMO1 partner interactions, dose response, biochemical, FRET (AID 624383); type: functional; conditions: read-out: IC50_Mean
Sequence of Small ubiquitin-related modifier 1 (P63165 whole entry): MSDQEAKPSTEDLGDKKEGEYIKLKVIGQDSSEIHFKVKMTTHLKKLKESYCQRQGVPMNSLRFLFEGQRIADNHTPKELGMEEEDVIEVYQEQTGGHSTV

Structure (SMILES)	IC50 [1]	EC50 [2]	IC50 [3]	EC50 [4]	EC50 [5]	further results
CCOC(=O)C1=C(C)OC2(O)c3ccccc3C(=O)C12O (stereo not drawn)	4.11 µM (active)					
COC(=O)c1cc(C)nc2c1C(=O)C(=O)C=C2N1CCOCC1	1.33 µM (active)	0.199 µM (active)				
N#Cc1c(N2CCCC2)nc(N)c2c(N)nc(N3CCCC3)cc12		0.109 µM (active)	1.05 µM (active)			
NS(=O)(=O)c1cc(C(=O)NC2CCSc3ccccc32)ccc1Cl (stereo not drawn)			> 158 µM (not active)	13.4 µM (inconclusive)	18.9 µM (inconclusive)	IC50 [6]: 2.68 µM (active); IC50 [7]: 24.5 µM (active); IC50 [8]: 2.29 µM (active)
O=C1c2ccccc2C(=O)c2[nH]c(O)nc21				28.9 µM (active)	17.9 µM (active)	
